Publication PMC10004634 (PLOS ONE, 2023)
Like-named read-outs stand apart in the source and are kept apart here.

Key:
Assay in all cases: biochemical
Set-up in all cases: KINOMEscan scanMAX competition binding, DNA-tagged kinases, qPCR read-out, percent control at 300 nM
FRK = FRK (Homo sapiens, UniProt P42685)
FLT3 = biological target: T1, FLT3 (Homo sapiens, UniProt P36888)
T1 sequence (P36888 1-993): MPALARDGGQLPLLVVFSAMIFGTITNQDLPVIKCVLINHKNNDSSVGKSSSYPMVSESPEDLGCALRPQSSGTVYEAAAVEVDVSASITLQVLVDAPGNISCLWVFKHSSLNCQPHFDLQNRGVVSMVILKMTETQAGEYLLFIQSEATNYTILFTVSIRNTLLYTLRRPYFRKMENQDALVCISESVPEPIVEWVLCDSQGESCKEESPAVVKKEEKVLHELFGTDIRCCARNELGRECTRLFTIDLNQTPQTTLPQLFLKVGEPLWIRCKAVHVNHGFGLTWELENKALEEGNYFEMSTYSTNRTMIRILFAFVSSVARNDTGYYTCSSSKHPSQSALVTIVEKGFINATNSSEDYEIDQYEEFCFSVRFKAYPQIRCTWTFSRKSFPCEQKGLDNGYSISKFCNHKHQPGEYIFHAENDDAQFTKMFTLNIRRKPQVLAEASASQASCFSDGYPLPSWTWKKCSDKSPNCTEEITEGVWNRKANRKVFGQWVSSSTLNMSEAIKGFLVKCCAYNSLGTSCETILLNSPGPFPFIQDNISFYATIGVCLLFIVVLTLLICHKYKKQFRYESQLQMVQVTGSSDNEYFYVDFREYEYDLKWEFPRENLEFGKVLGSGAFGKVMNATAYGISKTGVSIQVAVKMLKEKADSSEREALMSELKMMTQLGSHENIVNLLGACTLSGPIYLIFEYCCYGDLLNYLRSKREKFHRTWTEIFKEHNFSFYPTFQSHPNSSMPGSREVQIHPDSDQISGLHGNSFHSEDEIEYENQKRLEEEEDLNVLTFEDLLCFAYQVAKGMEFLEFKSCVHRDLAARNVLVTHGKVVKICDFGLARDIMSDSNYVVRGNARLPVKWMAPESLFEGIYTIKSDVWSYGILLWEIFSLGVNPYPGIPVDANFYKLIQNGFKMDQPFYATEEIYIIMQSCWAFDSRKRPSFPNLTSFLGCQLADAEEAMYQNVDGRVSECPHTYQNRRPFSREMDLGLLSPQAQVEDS

[1] = biological target: T2, JAK2(JH1domain-catalytic) (Homo sapiens, UniProt O60674)
T2 construct: JH1domain-catalytic

FGFR3 = FGFR3 (Homo sapiens, UniProt P22607)
RIOK3 = biological target: T3, RIOK3 (Homo sapiens, UniProt O14730)
T3 sequence (O14730 1-519): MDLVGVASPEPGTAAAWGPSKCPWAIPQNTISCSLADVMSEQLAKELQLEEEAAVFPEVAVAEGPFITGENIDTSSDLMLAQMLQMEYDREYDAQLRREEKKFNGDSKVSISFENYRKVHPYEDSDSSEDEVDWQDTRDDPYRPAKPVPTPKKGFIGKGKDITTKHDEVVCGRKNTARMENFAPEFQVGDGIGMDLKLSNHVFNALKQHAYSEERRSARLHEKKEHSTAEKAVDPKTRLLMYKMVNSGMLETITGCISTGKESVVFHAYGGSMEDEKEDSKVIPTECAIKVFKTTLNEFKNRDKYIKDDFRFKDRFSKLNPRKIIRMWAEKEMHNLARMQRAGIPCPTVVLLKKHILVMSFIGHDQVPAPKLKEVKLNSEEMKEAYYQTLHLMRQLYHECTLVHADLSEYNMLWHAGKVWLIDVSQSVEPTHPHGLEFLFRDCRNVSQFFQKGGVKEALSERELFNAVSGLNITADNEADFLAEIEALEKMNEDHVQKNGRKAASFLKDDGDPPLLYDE

TYRO3 = biological target: T4, TYRO3 (Homo sapiens, UniProt Q06418)
T4 sequence (Q06418 1-890): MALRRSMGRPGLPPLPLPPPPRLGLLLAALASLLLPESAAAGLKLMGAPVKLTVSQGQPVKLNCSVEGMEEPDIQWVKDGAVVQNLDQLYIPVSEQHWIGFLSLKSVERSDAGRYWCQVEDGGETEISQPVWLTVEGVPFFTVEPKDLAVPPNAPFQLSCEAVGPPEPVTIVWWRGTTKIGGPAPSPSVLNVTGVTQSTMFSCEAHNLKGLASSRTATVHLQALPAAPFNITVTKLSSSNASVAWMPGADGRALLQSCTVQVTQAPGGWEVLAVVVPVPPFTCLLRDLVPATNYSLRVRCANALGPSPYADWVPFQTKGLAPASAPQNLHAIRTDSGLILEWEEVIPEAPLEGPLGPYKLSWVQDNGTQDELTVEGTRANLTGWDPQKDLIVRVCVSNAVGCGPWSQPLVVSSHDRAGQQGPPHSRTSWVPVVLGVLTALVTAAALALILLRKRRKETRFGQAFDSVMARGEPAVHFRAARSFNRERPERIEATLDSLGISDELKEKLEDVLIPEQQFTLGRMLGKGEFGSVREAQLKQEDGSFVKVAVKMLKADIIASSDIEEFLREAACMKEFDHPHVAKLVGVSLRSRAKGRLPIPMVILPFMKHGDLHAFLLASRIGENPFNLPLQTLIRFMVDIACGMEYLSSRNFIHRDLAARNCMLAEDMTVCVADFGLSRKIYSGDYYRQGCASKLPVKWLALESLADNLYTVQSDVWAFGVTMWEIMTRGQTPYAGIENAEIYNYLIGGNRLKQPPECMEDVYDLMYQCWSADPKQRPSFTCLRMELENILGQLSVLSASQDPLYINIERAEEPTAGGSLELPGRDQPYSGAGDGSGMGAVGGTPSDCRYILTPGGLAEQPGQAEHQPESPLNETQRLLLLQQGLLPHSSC

[2] = read-out: Percent control / Acalabrutinib
[3] = read-out: Percent control / Ibrutinib
[4] = read-out: Percent control / Tirabrutinib
[5] = read-out: Percent control / Zanubrutinib

T2 sequence (O60674 whole entry): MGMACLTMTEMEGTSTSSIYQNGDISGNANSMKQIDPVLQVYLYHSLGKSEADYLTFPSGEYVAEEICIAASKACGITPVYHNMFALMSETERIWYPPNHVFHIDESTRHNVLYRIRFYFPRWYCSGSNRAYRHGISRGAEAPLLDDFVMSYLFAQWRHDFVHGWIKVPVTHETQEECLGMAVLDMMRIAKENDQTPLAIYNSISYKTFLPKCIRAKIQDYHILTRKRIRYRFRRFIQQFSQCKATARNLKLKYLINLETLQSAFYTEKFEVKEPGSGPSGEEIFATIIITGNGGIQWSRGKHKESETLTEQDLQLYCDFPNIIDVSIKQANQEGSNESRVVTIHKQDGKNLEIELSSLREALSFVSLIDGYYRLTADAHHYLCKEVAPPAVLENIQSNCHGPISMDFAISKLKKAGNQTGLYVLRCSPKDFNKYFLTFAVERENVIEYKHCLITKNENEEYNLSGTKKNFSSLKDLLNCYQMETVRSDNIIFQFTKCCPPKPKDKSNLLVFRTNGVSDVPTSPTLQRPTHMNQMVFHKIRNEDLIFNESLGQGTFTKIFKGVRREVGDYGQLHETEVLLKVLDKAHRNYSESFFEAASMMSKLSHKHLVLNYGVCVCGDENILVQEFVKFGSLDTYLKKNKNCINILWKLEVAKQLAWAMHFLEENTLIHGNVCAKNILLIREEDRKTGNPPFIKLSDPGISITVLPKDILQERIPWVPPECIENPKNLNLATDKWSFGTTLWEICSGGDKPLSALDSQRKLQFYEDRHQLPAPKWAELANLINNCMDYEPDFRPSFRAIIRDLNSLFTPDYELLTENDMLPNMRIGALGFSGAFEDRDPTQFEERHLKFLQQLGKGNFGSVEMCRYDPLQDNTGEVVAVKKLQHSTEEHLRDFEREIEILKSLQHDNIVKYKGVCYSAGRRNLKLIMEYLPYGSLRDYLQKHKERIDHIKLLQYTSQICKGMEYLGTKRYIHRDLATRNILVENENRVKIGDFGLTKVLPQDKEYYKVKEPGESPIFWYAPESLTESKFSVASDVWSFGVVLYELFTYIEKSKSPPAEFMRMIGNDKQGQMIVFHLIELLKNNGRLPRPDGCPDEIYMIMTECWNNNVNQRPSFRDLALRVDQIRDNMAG
Sequence of FRK (P42685 whole entry): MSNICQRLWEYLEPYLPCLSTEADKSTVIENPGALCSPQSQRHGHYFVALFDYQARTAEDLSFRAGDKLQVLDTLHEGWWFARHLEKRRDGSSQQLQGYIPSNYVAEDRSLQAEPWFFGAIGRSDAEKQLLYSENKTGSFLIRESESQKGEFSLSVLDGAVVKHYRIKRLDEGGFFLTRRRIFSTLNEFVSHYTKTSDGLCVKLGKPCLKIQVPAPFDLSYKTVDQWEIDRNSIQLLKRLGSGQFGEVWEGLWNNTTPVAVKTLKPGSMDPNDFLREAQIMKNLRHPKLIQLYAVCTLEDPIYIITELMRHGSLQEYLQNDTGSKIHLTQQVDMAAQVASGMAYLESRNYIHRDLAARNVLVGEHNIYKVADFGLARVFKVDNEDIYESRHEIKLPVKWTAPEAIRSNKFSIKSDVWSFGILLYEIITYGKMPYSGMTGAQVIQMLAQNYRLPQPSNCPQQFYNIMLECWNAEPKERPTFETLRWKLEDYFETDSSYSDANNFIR
Sequence of FGFR3 (P22607 whole entry): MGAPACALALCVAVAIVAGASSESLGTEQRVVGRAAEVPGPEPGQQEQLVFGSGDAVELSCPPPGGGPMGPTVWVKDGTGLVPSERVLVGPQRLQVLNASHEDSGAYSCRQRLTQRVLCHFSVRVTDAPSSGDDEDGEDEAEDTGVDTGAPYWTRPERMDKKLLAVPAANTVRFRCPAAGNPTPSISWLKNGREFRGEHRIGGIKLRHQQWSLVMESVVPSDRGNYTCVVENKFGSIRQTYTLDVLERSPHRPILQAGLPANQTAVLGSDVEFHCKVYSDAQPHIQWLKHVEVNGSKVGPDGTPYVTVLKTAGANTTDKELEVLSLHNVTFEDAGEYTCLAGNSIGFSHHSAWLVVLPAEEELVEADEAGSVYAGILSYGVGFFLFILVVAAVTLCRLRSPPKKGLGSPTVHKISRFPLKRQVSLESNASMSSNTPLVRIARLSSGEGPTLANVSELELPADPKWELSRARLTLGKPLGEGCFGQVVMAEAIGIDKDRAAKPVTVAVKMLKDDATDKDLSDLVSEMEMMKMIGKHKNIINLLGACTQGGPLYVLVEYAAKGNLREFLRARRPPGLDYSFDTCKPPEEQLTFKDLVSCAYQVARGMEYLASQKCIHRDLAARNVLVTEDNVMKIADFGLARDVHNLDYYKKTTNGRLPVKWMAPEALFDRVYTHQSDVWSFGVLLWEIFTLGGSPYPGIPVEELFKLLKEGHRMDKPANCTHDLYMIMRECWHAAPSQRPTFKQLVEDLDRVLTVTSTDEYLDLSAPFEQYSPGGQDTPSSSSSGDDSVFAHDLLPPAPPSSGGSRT

SMILES: CC#CC(=O)N1CCC[C@H]1c1nc(-c2ccc(C(=O)Nc3ccccn3)cc2)c2c(N)nccn12 [Acalabrutinib]
- remaining binding at 0.3 µM (FRK; [2]): 79%
- remaining binding at 0.3 µM (FLT3; [2]): 86%
- remaining binding at 0.3 µM [1, 2]: 85%
- remaining binding at 0.3 µM (FGFR3; [2]): 95%
- remaining binding at 0.3 µM (RIOK3; [2]): 90%

SMILES: C=CC(=O)N1CCC[C@@H](n2nc(-c3ccc(Oc4ccccc4)cc3)c3c(N)ncnc32)C1 [Ibrutinib]
- remaining binding at 0.3 µM (TYRO3; [3]): 61%
- remaining binding at 0.3 µM (FRK; [3]): 32%
- remaining binding at 0.3 µM (FLT3; [3]): 47%
- remaining binding at 0.3 µM (RIOK3; [3]): 89%

SMILES: CC#CC(=O)N1CC[C@@H](n2c(=O)n(-c3ccc(Oc4ccccc4)cc3)c3c(N)ncnc32)C1 [Tirabrutinib]
- remaining binding at 0.3 µM (TYRO3; [4]): 99%
- remaining binding at 0.3 µM (FLT3; [4]): 98%
- remaining binding at 0.3 µM [1, 4]: 77%
- remaining binding at 0.3 µM (FGFR3; [4]): 92%

SMILES: C=CC(=O)N1CCC([C@@H]2CCNc3c(C(N)=O)c(-c4ccc(Oc5ccccc5)cc4)nn32)CC1 [Zanubrutinib]
- remaining binding at 0.3 µM (TYRO3; [5]): 80%
- remaining binding at 0.3 µM (FRK; [5]): 42%
- remaining binding at 0.3 µM (FLT3; [5]): 90%
- remaining binding at 0.3 µM [1, 5]: 96%
- remaining binding at 0.3 µM (FGFR3; [5]): 93%
- remaining binding at 0.3 µM (RIOK3; [5]): 100%
